{"source": "paper PMC3367138", "about": "“Selective inhibitors of cardiac ADPR cyclase as novel anti-arrhythmic compounds” (Naunyn-Schmiedeberg's Archives of Pharmacology, 2012)", "target": "T1, adenosine A2A receptor (Homo sapiens, UniProt P29274)", "T1 construct": "gene ADORA2A", "T1 sequence (P29274 whole entry)": "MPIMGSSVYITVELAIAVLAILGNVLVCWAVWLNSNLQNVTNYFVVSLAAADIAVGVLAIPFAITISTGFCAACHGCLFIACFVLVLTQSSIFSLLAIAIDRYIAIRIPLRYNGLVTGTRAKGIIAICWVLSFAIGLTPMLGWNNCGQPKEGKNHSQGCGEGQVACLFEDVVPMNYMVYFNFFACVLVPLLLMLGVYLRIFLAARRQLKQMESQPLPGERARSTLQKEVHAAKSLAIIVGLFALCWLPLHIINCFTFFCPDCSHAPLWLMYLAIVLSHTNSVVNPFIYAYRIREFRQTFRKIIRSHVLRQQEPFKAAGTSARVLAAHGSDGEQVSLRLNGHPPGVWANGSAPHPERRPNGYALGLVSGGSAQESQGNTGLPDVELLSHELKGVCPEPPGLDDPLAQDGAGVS", "assay": "radioligand displacement (agonist radioligand), single concentration […] in duplicate; […] of control remaining ([…] inhibition)", "format": "binding"}
{"compound": "Cc1nn(Cc2cccc(C(=O)O)c2)c2nc(-c3ccncc3)[nH]c(=O)c12", "note": "[SAN4825]", "values": [{"measurement": "inhibition at 10 µM", "result": 81, "unit": "%"}]}
